Source: paper PMC8009478, “Novel Curcumin-Diethyl Fumarate Hybrid as a Dualistic GSK-3β Inhibitor/Nrf2 Inducer for the Treatment of Parkinson’s Disease” (ACS Chemical Neuroscience, 2020)
“And” between values parts separate entries of the source, which are not always exact repeats. Equal values may be shown once. Where a name gives a salt, the structure may show the parent alone. Blank lines part the entries; values can stand above or below the compound they belong to.

Assays:
[1] = test system: C. elegans BY250 [vtIs7 (Pdat-1:GFP)] CEP neurons; experiment: 6-OHDA-induced neurodegeneration of CEP neurons in the C. elegans model of PD; type: in vivo, Caenorhabditis elegans; conditions: 6-OHDA 5 mM alone for 30 min, scored after 72 h
Excerpt: The nematode Caenorhabditis elegans (C. elegans) has been increasingly employed as a genetically tractable in vivo model to study the molecular mechanisms involved in several NDDs due to a short life cycle, fast reproduction, and a highly conserved inheritance (genetic basis).[35] This invertebrate model offers the opportunity to take advantage of the significant conservation of genes and metabolic pathways common to both invertebrates and humans. At the neuronal level, the adult wild-type C. elegans organism contains only eight DA neurons that repeat the features of DA neurons of mammalian, making it possible to simplify the investigations considerably. In the transgenic BY250 [vtIs7 (Pdat-1:GFP)] strain, six DA neurons in the head, namely the four sensory cephalic (CEP) and the two anterior deirid (ADE) neurons, express the green fluorescent protein (GFP) and can be clearly visualized by fluorescence microscopy analysis and thus scored over time.[36] Indeed, in this model, investigations of DA neurons degeneration in vivo are feasible through a first exposition of the nematode to PD-inducing toxin, namely 6-OHDA, followed by direct visualization of the GFP-labeled DA neurons.[37] It is thus possible to screen small molecules for their anti-PD potential, in terms of rescue of the DA neurodegeneration phenotype manifested upon neurotoxin exposure, through visualization and scoring of the alterations of CEP neuron count or neuronal morphology. […] This effect makes it possible the identification of neuroprotective agents with the ability to activate Nrf2 through the inhibition of GSK-3.[38] The curcumin-DEF hybrids 4 and 5 were investigated in the above C. elegans model for their protective effects on 6-OHDA-induced degeneration of a subclass of DA neurons. Animals were incubated with 5 μM concentration of 4 and 5, in the presence of 5 mM of 6-OHDA, for 30 min. After 72 h, the animals were studied by examining the four CEP neurons. Degenerating CEP neurons were morphologically analyzed and quantified (Figure 8). We recorded that in animals treated with 6-OHDA, 68% of CEP neurons degenerated.
Figure 8 Effects of 4 and 5 on 6-OHDA-induced neurodegeneration in C. elegans. Animals were treated with 4 or 5 (5 μM) in the presence of 6-OHDA (5 mM) for 30 min. At the end of incubation, treated animals were placed on fresh agar plates for 72 h and then visualized as described in the Materials and Methods section. (A) In nontreated vtIs7 [pdat-1::GFP] transgenic animals, dopaminergic neurons express GFP, with two of the four CEP cell bodies (white arrows) and relative dendrites (arrowheads) visible in this focal plane in the head. (B) 6-OHDA treatment causes the degeneration of CEP dendrites (empty arrowheads) and two cell bodies (gray arrows), in treated animals. The other two CEP neurons are not visible anymore. (C) Compound 5 cotreatment partially rescues the 6-OHDA-induced toxic effects, with degeneration of one of the CEP dendrites (empty arrowhead) but not the other (arrowhead) and with one CEP cell body still viable (white arrow) and one dying (gray arrow) in this focal plane. […] ADE neurons, which are less affected by 6-OHDA treatment, are also visible but were not scored (asterisks). (D) Quantification of degenerating CEP neurons. Data are expressed as percentages of degenerating neurons and reported as mean ± SEM of at least three independent experiments. […]

[2] = test system: GSK-3β; parameters: method as in PMID 28597702; conditions: previously identified GSK-3β inhibitors; ref 21b; cited from earlier work
[3] = pig, PAMPA, 2.5 h, pH 7.4
[4] = test system: SH-SY5Y cells; experiment: t-BuOOH-induced intracellular ROS formation (H2DCF-DA probe); type: cell-based, human; conditions: then t-BuOOH 100 μM for 30 min
Excerpt: Oxidative stress represents a remarkable pathological feature in NDDs; it is the consequence of an imbalance between the formation of reactive radical species, among others ROS, and the function of many defense antioxidant enzymes. Initially, the potential of compounds 4–7 as indirect antioxidants was investigated[31] by assessing their capability to protect from oxidative stress through prevention of ROS formation upon exposure to tert-butyl hydroperoxide (t-BuOOH). In detail, SH-SY5Y cells were first chronically treated for 24 h (the time necessary to activate the endogenous antioxidant system) with 4–7 (5 μM) and then exposed to 100 μM of t-BuOOH for 30 min; DMF (5 and 10 μM) was employed as the reference compound. Then, the intracellular ROS formation was detected by fluorescent probe 2′-7′-dichlorodihydrofluorescein diacetate (H2DCF-DA).
Figure 3 Antioxidant activity of compounds 4–7 and DMF against t-BuOOH-induced ROS formation in SH-SY5Y cells. Cells were treated with compounds 4–7 (5 μM) and DMF (5 and 10 μM) for 24 h and then with t-BuOOH (100 μM) for 30 min. At the end of treatment, the ROS formation was evaluated by probe H2DCF-DA. Results are expressed as mean ± SEM of at least three independent experiments (* p < 0.05 and ** p < 0.01 vs cells treated with t-BuOOH at one-way ANOVA with the Dunnett post hoc test).
ROS formation was evaluated by using the fluorescent probe H2DCF-DA, as previously described.[43]

[5] = test system: SH-SY5Y cells; experiment: Intracellular GSH levels (MCB probe); type: cell-based, human; conditions: DMF at 5 and 10 μM, 24 h
Procedure: By observing the reduction of ROS levels following a long treatment of the curcumin-DEF hybrids before the treatment with t-BuOOH, we hypothesized that the antioxidant effect might likely result from an increase in levels of GSH. This endogenous antioxidant plays critical roles in protecting cells against oxidative stress damage.[32] Thus, the intracellular GSH levels were analyzed by employing the same experimental conditions used to evaluate the indirect antioxidant effect by fluorescent probe monochlorobimane (MCB). […] For the most promising compounds 4 and 5, the effect on GSH levels at different times (3–24 h) was studied.
Figure 4 Effects of compounds 4–7 and DMF on GSH levels in SH-SY5Y cells. Cells were treated with (A) compounds 4–7 (5 μM) and DMF (5 and 10 μM) for 24 h. (B) Cells were treated with compounds 4 and 5 (5 μM) for different times (3, 6, 12, and 24 h). At the end of the treatment, the GSH levels were evaluated by probe MCB. Results are expressed as mean ± SEM of at least three independent experiments (** p < 0.01 and *** p < 0.001 vs untreated cells at one-way ANOVA with the Dunnett post hoc test).
GSH levels were evaluated by using the fluorescent probe MCB, as previously described.[44]

[6] = Chemical stability study by RP-HPLC; type: physicochemical; conditions: DMSO 0.50 mg/mL, pH 7.4 with 50 mM phosphate, 70 °C, 24 h
Procedure: Conscious of the liabilities that might affect the newly synthesized curcumin-fumarate hybrids involving both the curcumin scaffold and the ester function, the chemical stability of the ester-based 6 and its carboxylic-acid counterpart 7 was studied by RP-HPLC.[21b]
The tested derivatives 6 and 7 were dissolved in DMSO (0.50 mg/mL), and the pH of the solution was adjusted to 7.4 using 50 mM phosphate. The obtained solutions were then maintained at 70 °C (oven) for 24 h and analyzed by RP-HPLC under the conditions reported in the General Procedures section.

[7] = PAMPA-BBB assay; conditions: for prediction (penetration in the CNS): from PAMPA-BBB Pe; for Papp at 2.5 h: pig, PAMPA, pH 7.4
[8] = molecular target: T1, GSK-3β (Homo sapiens, UniProt P49841); experiment: GSK-3β inhibition, luminescent kinase assay (Kinase-Glo); conditions: for IC50: GSK-3β inhibition IC50 (μM) ± SEM, human recombinant enzyme, luminescence method
Procedure: A kinetic study was performed in which the concentrations of both ATP and tested compounds were varied, while the concentration of the substrate was kept constant.
GSK-3β inhibition . Kinase-Glo assays (Promega Biotech Iberica, SL) were performed in assay buffer using
black 96-well plates. In a typical assay, 10 µl (10 µM) of test compound (dissolved in DMSO at 1 mM concentration and diluted in advance in assa y buffer to the desired concentration) and 10 µL (20 ng) of
enzyme were added to each well followed by 20 µl of assay buffer containing 50 µM substrate and 2 µM ATP.
After 30 -min incu bation at 30 °C
the enzymatic reaction was stopped with 40 µL of Kinase -Glo reagent. Glow -type luminescence was recorded
after 10 min using a FLUOstar Optima (BMG Labtechnologies GmbH, Offenburg Germany) multimode reader.
The activity is proportional to th e difference in the total and consumed ATP. The inhibitory activities were
calculated on the basis of maximal activities measured in the absence of inhibitor. The IC 50 was defined as the concentration of each compound that reduces a 50 % the enzymatic activity with respect to that without
inhibitors. Five different concentrations by duplicate were used to determine the dose/response curve.

[9] = molecular target: T1, GSK-3β; experiment: Kinetic study of GSK-3β inhibition, competition with ATP (ADP-Glo Kinase Assay); type: biochemical; conditions: ATP 1 to 50 μM; inhibitors 5 and 10 μM; substrate 25 μM; double reciprocal plot
Procedure: Figure 2 Kinetic data for the curcumin-DEF hybrids 5 and 6. In the reaction mixture, the concentration of compounds employed is reported in the plot, the concentration of the substrate is constant (25 μM), and the concentration of ATP changes from 1 to 50 μM. Each point is the mean of two different experiments analyzed in triplicate.
Kinetic experiments were performed using the ADP-Glo Kinase Assay,[42] in which ATP concentration varied from 1 to 50 μM, the concentrations of inhibitors employed were 5 and 10 μM, while the concentration of GS2 was kept constant (25 μM). Graphs (Figure 2) report the double reciprocal plot of the data.

[10] = in vitro; conditions: pig, PAMPA, pH 7.4
[11] = parameters: method as in earlier work; conditions: literature values of commercial drugs; ref 1 (Di et al., 2003); cited from earlier work

T1 sequence (P49841 whole entry): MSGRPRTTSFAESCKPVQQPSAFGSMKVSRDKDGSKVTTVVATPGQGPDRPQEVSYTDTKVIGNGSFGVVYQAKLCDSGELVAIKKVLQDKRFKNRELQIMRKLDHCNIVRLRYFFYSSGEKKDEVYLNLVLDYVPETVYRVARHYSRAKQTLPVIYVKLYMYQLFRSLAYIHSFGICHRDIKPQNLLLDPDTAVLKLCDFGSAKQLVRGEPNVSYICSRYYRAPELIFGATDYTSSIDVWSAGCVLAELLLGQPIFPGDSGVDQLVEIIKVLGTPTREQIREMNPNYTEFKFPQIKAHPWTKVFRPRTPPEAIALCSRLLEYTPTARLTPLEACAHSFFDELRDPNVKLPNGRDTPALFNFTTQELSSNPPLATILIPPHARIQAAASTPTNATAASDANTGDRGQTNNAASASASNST

Pe (10-6 cm s-1) [3]: 8,7 10-6 cm s-1
Compound: CNCCCN1c2ccccc2CCc2ccccc21 [Desipramine]

melting point: 182 to 184 °C | prediction (penetration in the CNS) [7]: CNS +/CNS – | Papp at 2.5 h [7]: 1.7 ± 1 ×10⁻⁶ cm/s | IC50 [8]: > 10 µM | inhibition at 10 µM ([8]; read-out: GSK-3β inhibition, inhibition (%)): 46%
Compound: O=C(O)/C=C/C(C(=O)/C=C/c1ccc(OCc2ccccc2)cc1)=C(O)\C=C\c1ccc(OCc2ccccc2)cc1 [Compound 7, (2E,4Z,6E)-7-(4-(Benzyloxy)phenyl)-4-((E)-3-(4-(benzyloxy)phenyl)acryloyl)-5-hydroxyhepta-2,4,6-trienoic Acid]
t-BuOOH-induced intracellular ROS formation ([4]; 5 μM for 24 h): not | chemical stability [6]: formation of a degradation product was observed

mechanism of inhibition as regards competition with ATP [9]: noncompetitive inhibitors of ATP binding | chemical stability [6]: stable | melting point: 153 to 155 °C | Papp at 2.5 h [7]: 4.5 ± 0.6 ×10⁻⁶ cm/s | IC50 [8]: 6.1 µM and 6.09 µM
Compound: CCOC(=O)/C=C/C(C(=O)/C=C/c1ccc(OCc2ccccc2)cc1)=C(O)\C=C\c1ccc(OCc2ccccc2)cc1 [Compound 6, Ethyl (2E,4Z,6E)-7-(4-(Benzyloxy)phenyl)-4-((E)-3-(4-(benzyloxy)phenyl)acryloyl)-5-hydroxyhepta-2,4,6-trienoate]
t-BuOOH-induced intracellular ROS formation ([4]; 5 μM for 24 h): not | prediction (penetration in the CNS) [7]: CNS + (compounds showing a Pe value superior to 2.26 × 10^–6 cm s^–1 could be regarded as able to permeate the brain compartment and thus classified as (CNS +))

Papp at 2.5 h [10]: 0.5 ×10⁻⁶ cm/s
Compound: CCn1cc(C(=O)O)c(=O)c2cc(F)c(N3CCNCC3)nc21 [Enoxacin]

Papp at 2.5 h [7]: 5.9 ×10⁻⁶ cm/s
Compound: CN(C)CCCN1c2ccccc2Sc2ccccc21 [Promazine, reference compound]
Bibl. Pe [11]: 8.8 10-6 cm s-1

Papp at 2.5 h [7]: 0.4 ×10⁻⁶ cm/s
Compound: CN1C(C(=O)Nc2ccccn2)=C(O)c2ccccc2S1(=O)=O [Piroxicam, reference compound]
Bibl. Pe [11]: 2.5 10-6 cm s-1

More lines, now with the values behind:

Compound: NCCc1cc(O)c(O)cc1O [6-OHDA, 6-hydroxydopamine, reference compound]
degenerating CEP neurons [1]: 68%

Compound: COc1ccc(/C=C/C(O)=C/C(=O)/C=C/c2ccc(OCc3ccccc3)cc2)cc1 [Compound 2]
IC50 [2]: 2780 nM

Compound: O=C(/C=C(O)/C=C/c1ccc(OCc2ccccc2)cc1)/C=C/c1ccc(OCc2ccccc2)cc1 [Compound 3]
IC50 [2]: 2490 nM

Compound: COC(=O)/C=C/C(=O)OC [DMF, dimethyl fumarate, reference compound]
t-BuOOH-induced intracellular ROS formation ([4]; DMF 5 and 10 μM for 24 h): significant reduction | increase in GSH levels [5]: 2–3 fold

Compound: Cn1c(=O)c2c(ncn2C)n(C)c1=O [Caffeine, reference compound]
Papp at 2.5 h [7]: 0.5 ×10⁻⁶ cm/s

Compound: COc1ccc(/C=C/C(=O)/C=C(O)/C=C/c2ccc(OC)cc2)cc1 [Compound 1]
IC50 [2]: 530 nM
